Results on 7 molecules are retold here after US4235912A, “Biologically active new 8β-hydrazinomethyl-ergoline derivatives and a process for the preparation thereof” (Richter Gedeon Vegyeszeti Gyar Rt, priority 1978, dated 1980).

Assay [1] concerns serotonine-induced oedema. Put plainly: antiserotonine effect in vivo: inhibition of serotonine-induced plantar oedema. More on the design: species or system rat. To be noted: for ED50: Rattus norvegicus, 50 μg serotonine into plantar region of rats.
Assay [2] deals with T1, serotonine receptors (Rattus norvegicus, UniProt P14842).
T1 construct: isolated rat uterus sensitized with diethylstibestrol; from tissue; host or cells: isolated rat uterus, sensitized with diethylstilbestrol (printed 'diethylstibestrol')
T1 sequence (P14842 whole entry): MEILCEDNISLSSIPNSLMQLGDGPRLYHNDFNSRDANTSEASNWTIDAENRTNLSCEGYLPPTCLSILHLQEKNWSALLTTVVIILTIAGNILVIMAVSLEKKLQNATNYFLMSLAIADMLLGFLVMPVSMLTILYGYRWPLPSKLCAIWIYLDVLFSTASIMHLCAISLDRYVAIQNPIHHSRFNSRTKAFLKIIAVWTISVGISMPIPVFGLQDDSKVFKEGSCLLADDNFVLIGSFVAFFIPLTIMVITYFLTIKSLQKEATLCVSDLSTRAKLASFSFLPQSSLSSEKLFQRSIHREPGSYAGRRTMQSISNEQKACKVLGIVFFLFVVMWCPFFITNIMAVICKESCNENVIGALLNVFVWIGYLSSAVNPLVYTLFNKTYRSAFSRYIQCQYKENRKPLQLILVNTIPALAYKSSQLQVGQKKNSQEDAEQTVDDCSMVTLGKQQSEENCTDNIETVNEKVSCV
In words: antiserotonine effect in vitro on isolated rat uterus sensitized with diethylstibestrol.

Assay [3] concerns reserpine-induced depression. Put plainly: antidepressant activity: reserpine-induced depression, maximum increase in body temperature. It counts as in vivo. The settings on record: mice. As for the experimental part:
The new 8β-hydrazinomethyl-ergoline derivatives show antidepressant effects as tested on mice suffering from reserpine-induced depression. An intraperitoneal dosage of 5 mg/kg of reserpine was applied to induce depression. 18 hours later the body temperature of the animals was measured, 30 mg/kg of the compound under examination were administered intraperitoneally into the animals, and the body temperature of the animals was measured hourly for 5 hours. The maximum increase in temperature (i.e. the maximum body temperature measured after administering the compound minus the initial value) was considered as the measure of the antidepressant activity. In these tests Imipramine was used as a reference substance.

Entries after “also recorded” stand apart in the source; their conditions may differ.

Take `CC(=O)NNC[C@@H]1C[C@@H]2c3cccc4[nH]cc(c34)C[C@H]2N(C)C1` [Example 4, 6-Methyl-8β-([N'-acetyl-hydrazino]-methyl)-ergoline]: the figures for the ED50 in assay [1] (po) and in assay [1] (sc) were 3 mg/kg and 0.3 mg/kg, respectively.

With `CN(C)C(=O)NNC[C@@H]1C[C@@H]2c3cccc4[nH]cc(c34)C[C@H]2N(C)C1` [Example 6, 6-Methyl-8β-([N'-dimethylcarbamoyl-hydrazino]-methyl)-ergoline], the ED50 amounted to 3 mg/kg in assay [1] (po) and 0.05 mg/kg in assay [1] (sc).

Consider `CC(=O)NNC[C@@H]1C[C@@H]2c3cccc4c3c(cn4C)C[C@H]2N(C)C1` [Example 7, 1,6-Dimethyl-8β-([N'-acetyl-hydrazino]-methyl)-ergoline], for which the results for the ED50 in assay [1] (po) and in assay [1] (sc) were 3 to 10 mg/kg and 0.03 mg/kg, respectively.

In the case of `CN(C)C(=O)NNC[C@@H]1C=C2c3cccc4[nH]cc(c34)C[C@H]2N(C)C1` [Example 8, 6-Methyl-8β-([N'-dimethylcarbamoyl-hydrazino]-methyl)-ergol-9-ene], the ED50 in assay [1] (po) was 3 mg/kg; in assay [1] (sc), 0.16 mg/kg. Besides, the IC50 in assay [2] is 2.95 nM.

Consider `CC(=O)NNC[C@@H]1C=C2c3cccc4[nH]cc(c34)C[C@H]2N(C)C1` [Example 9, 6-Methyl-8β-([N'-acetyl-hydrazino]-methyl)-ergol-9-ene], for which the ED50 in assay [1] (po) amounted to 0.78 mg/kg; in assay [1] (sc), 0.055 mg/kg. In addition, in assay [1] (parenteral and oral administration), the “inhibition of serotonine-induced oedema, in words” value is reported as “outstandingly effective”. The IC50 in assay [2] was 3.22 nM.

As for `CNC(=S)NNC[C@@H]1C=C2c3cccc4[nH]cc(c34)C[C@H]2N(C)C1` [Example 14, 6-Methyl-8β-([N'-methylthiocarbamoyl-hydrazino]-methyl)-ergol-9-ene], in assay [3], the “antidepressant activity, in words” value is recorded as “outstandingly effective; also recorded: superior to that of Imipramine”.

In the case of `CC[C@@H](CO)NC(=O)[C@@H]1C=C2c3cccc4c3c(cn4C)C[C@H]2N(C)C1` [Methysergide, 1-methyl lysergic acid butanolamide, reference compound], the results for the ED50 in assay [1] (po) and in assay [1] (sc) were 0.64 mg/kg and 0.026 mg/kg, respectively.

One may read the ED50 as the dose that gives a 50% effect, or the effect in half of the subjects. The low end stands for an effect at a small dose, the high end for a need for a large dose. As a reminder, the IC50 is the concentration at which inhibition is half-maximal.
